Results on one compound are retold here after US20100069244A1, “Pyridine Compounds for Combating Pests” (priority 2006, published 2010).

This test has as its system Colorado Potato Beetle (Leptinotarsa decemlineata). In words: Activity against Colorado potato beetle, potato leaf dip. The class given is in vivo. Conditions: foliar, 120 h, read-out: mortality compared to 0% mortality of untreated controls. As for the experimental part:
6. Activity Against Colorado Potato Beetle (Leptinotarsa decemlineata)
Potato plants were utilized for bioassays. Excised plant leaves were dipped into 1:1 acetone/water dilutions of the active compounds. After the leaves had dried, they were individually placed onto water-moistened filter paper on the bottoms of Petri dishes. Each dish was infested with 5 to 7 larvae and covered with a lid. Each treatment dilution was replicated 4 times. Test dishes were held at approximately 27° C. and 60% humidity. Numbers of live and morbid larvae were assessed in each dish at 5 days after treatment application, and percent mortality was calculated.

For `CC(C)N1CC[C@H]1COc1cncc(Cl)c1` [Ia-155, 3-Chloro-5-((S)-1-isopropyl-azetidin-2-ylmethoxy)-pyridine], the mortality at 300 ppm is more than 50%.

As a reminder, the mortality is the share of the test organisms that died.
